# Values of other authors as cited in PubChem BioAssay AID1259409 (Chemical Carcinogenesis Research Information System (CCRIS), 2018).
# Test system: rodent chemically induced tumor inhibition, incidence and multiplicity
# Test: CCRIS tumor inhibitor studies
# Conditions: Carcinogen: N-METHYL-N-NITROSOUREA, 684-93-5, Route [Inhibitor]: ORAL, Species: RAT, Promoter: NONE USED
smiles,measurement,setting,value
CC1=C(/C=C/C(C)=C/C=C/C(C)=C/C(=O)Nc2ccc(O)cc2)C(C)(C)CCC1,"tumour outcome (control, treated, inhibition, significance)","Dose [Inhibitor]: 0, 782 MG/KG OF GRAIN-BASED WAYNE DIET FOR DURATION OF STUDY BEGINNING 7 D POST CARCINOGEN DOSE (STUDY DURATION: 25 WK), Strain/Sex: F344/FEMALE, Target Tissue: Type of Lesion: MAMMARY GLAND: TUMOR, Dose [Carcinogen]: 45 MG/KG BW ONCE AT 50 D OF AGE","9/25 (36%), 6/25 (24%), 33%, not significant"
same,"tumour outcome (control, treated, inhibition, significance)","Dose [Inhibitor]: 0, 782 MG/KG OF GRAIN-BASED WAYNE DIET FOR DURATION OF STUDY BEGINNING 7 D PRIOR TO CARCINOGEN DOSE (STUDY DURATION: 26, Strain/Sex: F344/FEMALE, Target Tissue: Type of Lesion: MAMMARY GLAND: TUMOR, Dose [Carcinogen]: 45 MG/KG BW ONCE AT 50 D OF AGE","9/25 (36%), 5/25 (20%), 44%, not significant"
same,"tumour outcome (control, treated, inhibition, significance)","Dose [Inhibitor]: 0, 786 MG/KG IN DIET FOR 26 WK BEGINNING 4 WK POST CARCINOGEN DOSE (STUDY DURATION: 31 WK), Strain/Sex: SPRAGUE-DAWLEY/FEMALE, Target Tissue: Type of Lesion: MAMMARY GLAND: ADENOCARCINOMA, Dose [Carcinogen]: 50 MG/KG ONCE","84%, 74%, 12%, not significant"
same,"tumour outcome (control, treated, inhibition, significance)","Dose [Inhibitor]: 0, 786 MG/KG IN DIET FOR 31 WK BEGINNING 1 WK PRIOR TO CARCINOGEN DOSE (STUDY DURATION: 31 WK), Strain/Sex: SPRAGUE-DAWLEY/FEMALE, Target Tissue: Type of Lesion: MAMMARY GLAND: ADENOCARCINOMA, Dose [Carcinogen]: 50 MG/KG ONCE","84%, 71%, 15%, not significant"
same,"tumour outcome (control, treated, inhibition, significance)","Dose [Inhibitor]: 0, 1173 MG/KG DIET BEGINNING AFTER THE SURGICAL REMOVAL OF THE FIRST PALPABLE TUMOR (STUDY DURATION: LIFETIME), Strain/Sex: SPRAGUE-DAWLEY/FEMALE, Target Tissue: Type of Lesion: MAMMARY GLAND: TUMOR, Dose [Carcinogen]: 35 MG/KG ONCE AT 50 DAYS OF AGE","93%, 88%, 5%, not calculated"
same,"tumour outcome (control, treated, inhibition, significance)","Dose [Inhibitor]: 1 MMOL/KG DIET DAILY STARTING 3 D AFTER LAST CARCINOGEN DOSE THROUGH END OF STUDY (STUDY DURATION: 129 D), Strain/Sex: SPRAGUE-DAWLEY/FEMALE, Target Tissue: Type of Lesion: MAMMARY GLAND: TUMOR, Dose [Carcinogen]: 50 MG/KG BW AT BOTH 50 AND 57 D OF AGE","17/17 (100%), 12/15 (80%), 20%, not significant"
same,"tumour outcome (control, treated, inhibition, significance)","Dose [Inhibitor]: 1 MMOL/KG DIET DAILY STARTING 3 D AFTER LAST CARCINOGEN DOSE THROUGH END OF STUDY (STUDY DURATION: 182 D), Strain/Sex: SPRAGUE-DAWLEY/FEMALE, Target Tissue: Type of Lesion: MAMMARY GLAND: TUMOR, Dose [Carcinogen]: 15 MG/KG BW AT BOTH 50 AND 57 D OF AGE","12/40 (30%), 12/40 (30%), 0%, not significant"
same,"tumour outcome (control, treated, inhibition, significance)","Dose [Inhibitor]: 2 MMOL/KG DIET DAILY FROM 2 D PRIOR THROUGH 12 WK AFTER CARCINOGEN DOSE FOLLOWED BY 16 WK OBSERVATION PERIOD (STUDY DURA, Strain/Sex: SPRAGUE-DAWLEY/FEMALE, Target Tissue: Type of Lesion: MAMMARY GLAND: TUMOR, Dose [Carcinogen]: 25 MG/KG BW ONCE","18/21 (86%), 15/30 (50%), 42%, p 0.027"
same,"tumour outcome (control, treated, inhibition, significance)","Dose [Inhibitor]: 2 MMOL/KG DIET DAILY FROM 2 D THROUGH 17 WK AFTER CARCINOGEN DOSE FOLLOWED BY 11 WK OBSERVATION PERIOD (STUDY DURATION:, Strain/Sex: SPRAGUE-DAWLEY/FEMALE, Target Tissue: Type of Lesion: MAMMARY GLAND: TUMOR, Dose [Carcinogen]: 25 MG/KG BW ONCE","18/21 (86%), 18/30 (60%), 30%, not significant"
same,"tumour outcome (control, treated, inhibition, significance)","Dose [Inhibitor]: 2 MMOL/KG DIET DAILY STARTING 3 D AFTER LAST CARCINOGEN DOSE THROUGH END OF STUDY (STUDY DURATION: 129 D), Strain/Sex: SPRAGUE-DAWLEY/FEMALE, Target Tissue: Type of Lesion: MAMMARY GLAND: TUMOR, Dose [Carcinogen]: 50 MG/KG BW AT BOTH 50 AND 57 D OF AGE","17/17 (100%), 11/17 (65%), 35%, p<0.01"
same,"tumour outcome (control, treated, inhibition, significance)","Dose [Inhibitor]: 2 MMOL/KG DIET DAILY STARTING 3 D AFTER LAST CARCINOGEN DOSE THROUGH END OF STUDY (STUDY DURATION: 182 D), Strain/Sex: SPRAGUE-DAWLEY/FEMALE, Target Tissue: Type of Lesion: MAMMARY GLAND: TUMOR, Dose [Carcinogen]: 15 MG/KG BW AT BOTH 50 AND 57 D OF AGE","12/40 (30%), 6/40 (15%), 50%, not significant"
same,"tumour outcome (control, treated, inhibition, significance)","Dose [Inhibitor]: 2 MMOL/KG DIET DAILY STARTING 12 D AFTER CARCINOGEN TREATMENT THROUGH ABOUT 8 MO AFTER CARCINOGEN DOSE (STUDY DURATION:, Strain/Sex: F344/MALE, Target Tissue: Type of Lesion: COLON: ADENOCARCINOMA, Dose [Carcinogen]: 2.5 MG 1/WK FOR 2 WK","5/39 (13%), 3/30 (10%), 23%, not significant"
